From patent US5389638A, “Tetrahydroisoquinolines as alpha-2 antagonists and biogenic amine uptake inhibitors” (Abbott Laboratories, priority 1993, dated 1995)
Structures can show the parent of a compound that is named as a salt. Where two headings read alike, the source gives them in different places.

How the values were obtained:
alpha-1 receptor = biological target: T1, alpha-1 receptor (Rattus norvegicus, UniProt P15823); test: alpha-1 receptor radioligand binding, rat liver homogenates, [3H]-prazosin
T1 sequence (P15823 1-515): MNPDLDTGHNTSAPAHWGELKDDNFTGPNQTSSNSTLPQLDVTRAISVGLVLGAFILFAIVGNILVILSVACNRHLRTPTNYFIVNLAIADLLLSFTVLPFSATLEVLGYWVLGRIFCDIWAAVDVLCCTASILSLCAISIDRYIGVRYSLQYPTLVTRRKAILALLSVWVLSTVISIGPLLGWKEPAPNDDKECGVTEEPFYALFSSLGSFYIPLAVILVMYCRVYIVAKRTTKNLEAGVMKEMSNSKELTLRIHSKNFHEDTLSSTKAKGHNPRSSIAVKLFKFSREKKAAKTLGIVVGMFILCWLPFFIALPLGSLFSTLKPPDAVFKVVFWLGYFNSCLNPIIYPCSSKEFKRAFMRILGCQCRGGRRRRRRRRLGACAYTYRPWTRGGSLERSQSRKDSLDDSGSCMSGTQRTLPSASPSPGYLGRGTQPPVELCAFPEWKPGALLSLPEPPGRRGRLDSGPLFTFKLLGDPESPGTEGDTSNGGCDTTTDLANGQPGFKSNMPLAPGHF

alpha-2 receptor = alpha-2 receptor radioligand binding, rat cerebral cortices, [3H]-rauwolscine; conditions: for Ki: rat cerebral cortices, [3H]-rauwolscine, read-out: Radioligand binding Ki α2; for Alpha-2 selectivity Ki α1/Ki α2: ratio Ki α1/Ki α2
dopamine uptake = test: inhibition of [3H]-amine uptake by synaptosome preparations, striatum (dopamine); assay type: biochemical, rat (male Sprague-Dawley); conditions: striatum synaptosomes, [3H]-amine approx. 100 nM, 4 min, 37° C.; read-out: Biogenic amine uptake IC50 DA
Source text: (§1) The primary method of evaluation of biogenic amine uptake activity has been the in vitro determination of the inhibition of radioactive amine uptake by synaptosome preparations of brain tissue. Basic procedures used are those described by Snyder and Coyle (Snyder, S. H. and J. T. Coyle, Regional Differences in ^3 H-Norepinephrine and ^3 H-Dopamine Uptake into Rat Brain Homogenates, Journal of Pharmacology and Experimental Therapeutics 1969, 165: 78-86) and Wong et al. (Wong, D. T., J-S. Horng and R. W. Fuller, Kinetics of Norepinephrine Accumulation into Synaptosomes of Rat Brain-Effects of Amphetamine and Chloroamphetamines, Biochemical Pharmacology 1973, 22:311-322). Briefly, male Sprague-Dawley rats were decapitated and regions of their brains dissected according to the procedures of Glowinski and Iversen (Glowinski, J. and L. L. Iversen, Regional Studies of Catecholamines in the Rat Brain--I: The Disposition of [^3 H]-Norepinephrine, [^3 H]-Dopamine and [^3 H]-DOPA in Various Regions of the Brain, Journal of Neurochemistry 1966, 13: 655-669). Hypothalamus (norepinephrine-), cortex (serotonin) and striatum (dopamine-uptake) were homogenized in 10, 5, and 20 volumes, respectively,of 0.32M sucrose using a Teflon/glass Potter-Elvehjem tissue grinder. Samples were centrifuged at 1000×G for 10 minutes and the supernatants harvested and used in the assay. Aliquots of tissue ([…]) were added to 750 mL of Kreb's solution (composition in mM; sodium chloride 118, potassium chloride 4.0, calcium chloride 1.13, potassium dihydrogen phosphate 1.12, magnesium sulfate 1.20, sodium bicarbonate 2.4, D-glucose 5.0, disodium ethylenediaminetetraacetic acid 1.5, ascorbic acid 1.0, and Pargyline, 12.5 mM, pH=7.4, aerated with 95% oxygen, 5% carbon dioxide), 50 mL of test compound diluted in 0.3 mM ascorbic acid, and […] [^3 H]-amine, final concentration approximately 100 nM. Tissues were incubated for 4 minutes at 37° C., followed by rapid vacuum filtration over Whatman GF/B filters and washed with 50 mM Tris-HCl (pH=7.4). Nonspecific uptake was estimated in duplicate samples incubated at 0 ° C. Data were analyzed as described previously (J. F. DeBemardis, D. J. Kerkman, D. L. Arendsen, S. A. Buckner, J. J. Kyncl, and A. A. Hancock, Conformationally Defined Adrenergic Agents. 5. Resolution, Absolute Configuration, and Pharmacological Characterization of the Enantiomers of 2-[5,6-Dihyroxy-1,2,3,4-tetrahydro-1-1-naphthyl]imidazoline: A Potent Agonist at a-Adrenoceptors, Journal of Medicinal Chemistry 1987, 30: 1011-1017).

serotonin (5-HT) uptake = test: inhibition of [3H]-amine uptake by synaptosome preparations, cortex (serotonin); assay type: biochemical, rat (male Sprague-Dawley); conditions: cortex synaptosomes, [3H]-amine approx. 100 nM, 4 min, 37° C.; read-out: Biogenic amine uptake IC50 5-HT
Source text: as §1

norepinephrine uptake = test: inhibition of [3H]-amine uptake by synaptosome preparations, hypothalamus (norepinephrine); assay type: biochemical, rat (male Sprague-Dawley); conditions: hypothalamus synaptosomes, [3H]-amine approx. 100 nM, 4 min, 37° C.; read-out: Biogenic amine uptake IC50 NE
Source text: as §1

| Structure (SMILES) | Ki (alpha-1 receptor) [nM] | Ki (alpha-2 receptor) [nM] | Alpha-2 selectivity Ki α1/Ki α2 (alpha-2 receptor) | IC50 (dopamine uptake) [nM] | IC50 (serotonin (5-HT) uptake) [nM] | IC50 (norepinephrine uptake) [nM] | Ki (alpha-1 receptor; read-out: Radioligand binding Ki α1, rat liver homogenates, [3H]-prazosin) [nM] |
| --- | --- | --- | --- | --- | --- | --- | --- |
| CN1CCc2cc3c(cc2C1CN1CCC(c2ccccc2)C1)OCO3 (stereo not shown) [Example 6, 6,7-Methylenedioxy-2-methyl-1-(3-phenylpyrrolidino)methyl-1,2,3,4-tetrahydroisoquinoline dimethanesulfonate] | 72 | 11.4 | 6 |  |  |  |  |
| CN1CCc2c(ccc3c2OCO3)C1CN1CCC(c2ccccc2)C1 (stereo not shown) [Example 5, 5,6-Methylenedioxy-2-methyl-1-N-(3-phenylpyrrolinodino)methyl-1,2,3,4-tetrahydroisoquinoline dihydrochloride] | 180 | 4.3 | 42 | 11400 | 2030 | 249 |  |
| CN(CCc1ccccc1)CC1c2ccc3c(c2CCN1C)OCO3 (stereo not shown) [Example 4, 5,6-Methylenedioxy-2-methyl-1-((N-methyl-N-(2-phenylethyl)amino)methyl)-1,2,3,4-tetrahydroisoquinoline dihydrochloride] | 621 | 2.6 | 238 | 24700 | 2600 | 885 |  |
| CN(CCc1ccccc1)C[C@H]1c2ccc3c(c2CCN1C)OCO3 [Example 12, 5,6-Methylenedioxy-2-methyl-1(R)-(((N-methyl-N-phenylethyl)amino)methyl)-1,2,3,4-tetrahydroisoquinoline dihydrochloride] | 1020 | 0.98 | 1040 | 25500 | 1410 | 1290 |  |
| CN(CCc1ccccc1)C[C@@H]1c2ccc3c(c2CCN1C)OCO3 [Example 13, 5,6-Methylenedioxy-2-methyl-1(S)-(((N-methyl-N-phenylethyl)amino)methyl-1,2,3,4-tetrahydroisoquinolinedihydrochloride] | 542 | 7.1 | 76 | 10600 | 2890 | 210 |  |
| CN1CCc2c(ccc3c2OCO3)[C@@H]1CN1CC[C@@H](c2ccccc2)C1 [Example 9, 5,6-Methylenedioxy-2-methyl-1(R)-[3'(S)-phenylpyrrolidino]methyl-1,2,3,4-tetrahydroisoquinoline dihyrochloride] | 168 | 2.1 | 80 | 9540 | 1580 | 426 |  |
| CNCCC(Oc1ccc(C(F)(F)F)cc1)c1ccccc1 (stereo not shown) [Fluoxetine, reference compound] |  |  |  | 15200 |  | 1310 |  |
| COC(=O)[C@H]1[C@H]2C[C@H]3c4[nH]c5ccccc5c4CCN3C[C@H]2CC[C@@H]1O [Rauw*, Rauwolscine, reference compound] | 450 |  |  |  |  | > 100 |  |
| COc1ccc2c(c1)CCN(C)C2CN1CCC(c2ccccc2)C1 (stereo not shown) [Example 1, 6-Methoxy-2-methyl-1-(3-phenylpyrrolidino)methyl-1,2,3,4-tetrahydroisoquinoline dihydrochloride] | 120 | 6.2 | 19 | 28300 | 9180 | 4430 |  |
| CN1CCc2c(ccc3c2OCO3)[C@H]1CN1CC[C@H](c2ccccc2)C1 [Example 10, 5,6-Methylenedioxy-2-methyl-1(S)-[3'(R)-phenylpyrrolidino]methyl-1,2,3,4-tetrahydroisoquinoline dihydrochloride] | 374 | 20.2 | 18.5 | 11700 | 754 | 214 |  |
| CN1CCc2c(ccc3c2OCO3)[C@@H]1CN1CC[C@H](c2ccccc2)C1 [Example 8, 5,6-Methylenedioxy-2-methyl-1(R)-(3'(R)-phenylpyrrolidino)methyl-1,2,3,4-tetrahydroisoquinoline dihydrochloride] |  | 2.5 | 178 | 9300 | 1110 | 489 | 446 |
| COc1ccc2c(c1)CCN(C)C2CN(C)CCc1ccccc1 (stereo not shown) [Example 2, 6-Methoxy-2-methyl-1-((N-methyl-N-(2-phenylethyl)amino)methyl)-1,2,3,4-tetrahydroisoquinoline dihydrochloride] | 175 | 4.6 | 38 | 26500 | 7710 | 1240 |  |
| COc1cccc2c1CCN(C)C2CN1CCC(c2ccccc2)C1 (stereo not shown) [Example 3, 5-Methoxy-2-methyl-1-(3-phenylpyrrolidino)methyl-1,2,3,4-tetrahydroisoquinoline dihydrochloride] | 306 | 6 | 51 | 9400 | 4450 | 621 |  |
| CN(CCc1ccccc1)CC1c2cc3c(cc2CCN1C)OCO3 (stereo not shown) [Example 7, 6,7-Methylenedioxy-2-methyl-1-((N-methyl-N-(2-phenylethyl)amino)methyl)-1,2,3,4-tetrahydroisoquinoline dihydrochloride] | 613 | 6.4 | 96 | 49800 | 6270 | 589 |  |
| CN1CCc2c(ccc3c2OCO3)[C@H]1CN1CC[C@@H](c2ccccc2)C1 [Example 11, 5,6-Methylenedioxy-2-methyl-1(S)-[3'(S)-phenylpyrrolidino]methyl-1,2,3,4-tetrahydroisoquinoline dihydrochloride] | 157 | 32.5 | 4.8 | 4950 | 1700 | 116 |  |
